The test system of experiment [1] is B. subtilis. The following applies: if the methyl sulfur moiety of the molecule is recycled; reference [13]; cited from earlier work.
Experiment [2] deals with B. subtilis. The experiment in a line: Growth in the presence of trifluoromethylthioribose (3F-MTR), resistance phenotype. The class given is cell-based, Bacillus subtilis. The following applies: inactivation of mtnK, mtnS, mtnY and mtnW. The text has this: Mutants were obtained by transformation of a wild type strain with a random transposon library, selecting for growth in the presence of trifluoromethylthioribose (3F-MTR). The mutants were subsequently tested for growth on plates lacking sulfur source but supplemented with MTR: only those that could not grow were retained for further study. In order to ascertain that the resistant phenotype was not coming from secondary mutations but was directly related to the transposon insert, the chromosome DNA was extracted from each putative mutant and back transformed into a wild type strain selecting for the transposon antibiotic marker. The 3F-MTR and MTR phenotypes were subsequently tested and only those mutants that passed the test were retained. The insertion positions of the transposons were then sequenced. […]
(§1) Bacterial strains and plasmids, and growth media: E. coli and B. subtilis strains as well as plasmids used in this work are listed in Table 3. […] In the latter case, 10 [μl of the sulfur source under investigation was applicated onto paper discs (MTR, 200 mM stock solution and methionine, 100 mM stock solution) deposited at the center of the plate, after bacteria had been uniformly spread at the surface of the plate, and growth was measured around the disK. […] The optical density (OD) of bacterial cultures was measured at 600 nm. […]

Experiment [3] concerns Strain BSHP7014 (mtnW:lacZ amyE::pxyl mtnXYZ). The experiment in a line: Toxicity of MTR for BSHP7014 strain (paper disc on ED1 minimal medium plates). The experiment is classed as cell-based, Bacillus subtilis. The following applies: inferred from MTR toxicity in mtnU or mtnW mutants with functional mtnY. As to the method: Toxicity of MTR for BSHP7014 strain. Strain BSHP7014 (mtnW:lacZ amyE::pxyl mtnXYZ) was grown on ED1 minimal medium plates in the presence of sulfate as sulfur source (panel A) or in the absence of any added sulfur source (agar as sole sulfur source, panel B). Xylose was added to the medium in order to trigger the expression of mtnXYZ from the pxyl promoter, 10 μl of methionine (met) or MTR was adsorbed on paper discs and plates were incubated over-night at 37° C. Methionine was used as a control for growth and/or toxicity of the sulfur source.
Two genes in the pathway are dispensable, mtnV and mtnX. The first one encodes a transaminase of which there are nine putative paralogs in the genome of B. subtilis (YwfG, AlaT, AspB, PatA, YhdR, YdfD, PatB, YisV, and HisC). In the same way, MtnX (YkrX) is a member of the phosphatase family pfam00702 ([12], FIG. 6), and therefore of a ubiquitous class of hydrolases (several phosphatase genes, in particular are present in the genome of B. subtilis). This is likely to account for the lack of phenotype under our growth conditions. […] In contrast, we discovered that MTR is toxic when the distal genes are present (when used as sole sulfur source or in the presence of sulfate, see FIG. 7). Because of the weak phenotype of a mtnZ mutant and the absence of phenotype of a mtnX mutant, we can be confident that MtnY acts before MtnW (this is a common feature in operons, where it is generally observed that the more distal genes code for proteins acting in the more proximate steps of the pathway).
as §1, with “3. E. coli TG1 and XL1-Blue were used for cloning experiments (TG1 for single cross-over recombination and XL1-Blue for double cross-over recombination). Despite the fact that there are no public regulations yet in this domain in China, all experiments were performed in accordance with the European regulation requirements concerning the contained use of Genetically Modified Organisms of Group-I (French agreement N^o 2735).” for “3.”

With `O=C[C@H](O)[C@H](O)[C@H](O)CSC(F)(F)F` [3F-MTR, 5-thio-5-5-S-trifluoromethyl-D-ribose], the “Toxicity of the MTR analog” value in the experiment on B. subtilis [1] is listed as “toxic”. In addition, the “Phenotype towards 3F-MTR” value with B. subtilis [2] is “resistance”.

With `CSCC(O)C(O)C(=O)COP(=O)(O)O` (stereo not drawn) [5-thiomethylribulose-1-phosphate], the “Toxicity to the cells” value in experiment [3] is recorded as “toxic”.

The values above are taken from patent publication US20040019066A1, “Methionine salvage pathway in bacillus” (priority 2002, published 2004).
